In publication PMC8151276, “An Integrated Approach toward NanoBRET Tracers for Analysis of GPCR Ligand Engagement” (Molecules, 2021):

How the values were obtained:
Assay type in all cases: binding
AGTR2 = target: T1, AGTR2 (Homo sapiens, UniProt P50052); assay: NanoBRET screen HiBiT-AGTR2 in HEK293
T1 construct: purchased Promega (in-house HiBiT-GPCR construct library, NanoBRET)
T1 sequence (P50052 1-363): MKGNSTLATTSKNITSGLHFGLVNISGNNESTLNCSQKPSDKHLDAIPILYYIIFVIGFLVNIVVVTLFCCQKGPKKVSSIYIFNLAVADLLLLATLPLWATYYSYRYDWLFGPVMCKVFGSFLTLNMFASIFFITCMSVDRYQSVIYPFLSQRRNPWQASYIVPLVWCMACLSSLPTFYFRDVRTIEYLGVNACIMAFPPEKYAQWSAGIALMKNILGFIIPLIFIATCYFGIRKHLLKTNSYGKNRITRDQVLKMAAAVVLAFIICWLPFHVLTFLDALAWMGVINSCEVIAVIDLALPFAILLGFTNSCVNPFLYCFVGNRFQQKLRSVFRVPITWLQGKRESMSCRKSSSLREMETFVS
Description: (§1) Each tracer candidate was screened across the entire library of HiBiT-GPCR constructs using NanoBRET as the detection modality. As depicted in Figure 4A, the specificity of interactions was evaluated through decrease in BRET due to competitive displacement of a bound tracer by excess parental compound. Each tracer was analyzed for binding to each HiBiT-GPCR fusion in the absence and in the presence of competing parental compound. Briefly, HEK293 cells were transfected with HiBiT-GPCR constructs diluted into promoterless DNA to reduce expression and maximize translocation to the cell surface. Each tracer candidate was then screened at concentrations of 1 μM and 0.1 μM across cells expressing these fusions. Cells were treated for 1.5 h with tracer either alone or in the presence of 20 μM competing parental compound (i.e., control). BRET was measured upon addition of purified LgBiT and subsequent complementation with HiBiT genetically fused to a GPCR. The specificity of interactions was assessed through a decrease in BRET signal due to competitive displacement of the bound tracer. To further gauge the robustness of these interactions, the fold response over the control (i.e., BRETtracer/BRETcontrol) was calculated. We chose a 1.5-fold response, which translates to ≥7-fold signal over noise as the minimal threshold required to score an interaction as positive. […]. Below we highlight the screening results obtained for our exemplary fluorescent tracers based on Clozapine, Amitriptyline and AZD1283.
(§2) HiBiT-GPCR DNA constructs were diluted in 10 mM Tris pH 8 to a final concentration of 0.01 μg/μL, arrayed in 96-well plates and stored at −20 °C. For transfection, HEK293 cells were suspended in Opti-MEM (without phenol red) supplemented with 2% fetal bovine serum (Seradigm) and 100 units/mL penicillin–streptomycin (Gibco) at a final concentration of 220,000 cells/mL and dispensed into white 96-well plates at 90 μL/well. Subsequent transfections and screens were carried using an Agilent Bravo Automated Liquid Handling Platform. First, the 96-well HiBiT DNA arrays were diluted 25-fold in Opti-MEM (without serum or phenol red) to a final concentration of 0.0004 μg/μL and 20 μL of the diluted DNAs were transferred into new 96-well plates. Next, promoterless carrier DNA (1 μg/μL) was diluted 25-fold (0.04 μg/μL) and then dispensed into the diluted arrays at 20 μL/well. Following brief mixing, Viafect transfection reagent (Promega) diluted 16-fold into Opti-MEM was dispensed into the plates at 40 μL/well. After mixing by pipetting, plates were incubated for 10 min on the pipetting station deck. The DNA-transfection reagent complexes were then added to plates containing cells. To facilitate the screen, 10 μL of DNA-transfection reagent complexes were added in duplicates to the top 4 and bottom 4 rows, resulting in two identical 48-well arrays per plate. Plates with transfected cells were incubated for 18–20 h at 37 °C/5% CO2. A screen of each tracer across the entire library using two different concentrations requires duplicate plates of transfected cells. Depending on the number of tracers being screened, transfections can be scaled up using the same ratios. The next day, for each tracer, four 20× screening solutions in tracer dilution buffer (Promega) were prepared: two duplicates at final concentration of 20 μM and two duplicates at a final concentration of 2 μM. A competing unmodified compound was added to one of each duplicate at a final concentration of 400 μM. The four resulting solutions were diluted 4-fold in Opti-MEM without serum or phenol red to generate 5× solutions (5 µM and 0.5 µM tracer +/− 100 μM competing compound). To screen the library, a BioTek MultiFlo FX liquid dispenser was used to dispense 22.5 µL of tracer solution to the top 4 rows and 22.5 µL tracer + competing compound solution to the 4 bottom rows. Plates were briefly mixed on an orbital shaker and incubated for 1.5 h at room temperature. […]

LTB4R = target: T2, LTB4R (Homo sapiens, UniProt Q15722); assay: NanoBRET screen HiBiT-LTB4R in HEK293
T2 construct: purchased Promega (in-house HiBiT-GPCR construct library, NanoBRET)
T2 sequence (Q15722 whole entry): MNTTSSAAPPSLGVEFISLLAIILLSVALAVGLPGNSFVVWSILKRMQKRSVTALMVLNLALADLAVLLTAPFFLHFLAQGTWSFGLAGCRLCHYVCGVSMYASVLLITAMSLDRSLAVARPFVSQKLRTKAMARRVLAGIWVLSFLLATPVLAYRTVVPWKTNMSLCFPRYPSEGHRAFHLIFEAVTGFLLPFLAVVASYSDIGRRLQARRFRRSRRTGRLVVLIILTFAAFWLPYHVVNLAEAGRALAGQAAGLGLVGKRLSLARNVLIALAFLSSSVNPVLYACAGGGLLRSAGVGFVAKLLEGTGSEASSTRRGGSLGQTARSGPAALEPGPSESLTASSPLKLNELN
Description: as §1, §2

SSTR1 = target: T3, SSTR1 (Homo sapiens, UniProt P30872); assay: NanoBRET screen HiBiT-SSTR1 in HEK293
T3 construct: purchased Promega (in-house HiBiT-GPCR construct library, NanoBRET)
T3 sequence (P30872 whole entry): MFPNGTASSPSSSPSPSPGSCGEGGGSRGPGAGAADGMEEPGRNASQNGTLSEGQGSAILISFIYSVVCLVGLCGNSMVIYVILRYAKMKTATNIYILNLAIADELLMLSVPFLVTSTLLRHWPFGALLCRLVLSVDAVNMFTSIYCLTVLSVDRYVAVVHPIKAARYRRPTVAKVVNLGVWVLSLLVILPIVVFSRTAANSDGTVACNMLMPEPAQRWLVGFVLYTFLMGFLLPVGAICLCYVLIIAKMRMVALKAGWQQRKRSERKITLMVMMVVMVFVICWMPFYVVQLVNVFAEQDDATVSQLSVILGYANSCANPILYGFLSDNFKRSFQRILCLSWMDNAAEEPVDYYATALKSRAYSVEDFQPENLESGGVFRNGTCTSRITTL
Description: as §1, §2

P2RY4 = target: T4, P2RY4 (Homo sapiens, UniProt P51582); assay: NanoBRET screen HiBiT-P2RY4 in HEK293
T4 construct: purchased Promega (in-house HiBiT-GPCR construct library, NanoBRET)
T4 sequence (P51582 whole entry): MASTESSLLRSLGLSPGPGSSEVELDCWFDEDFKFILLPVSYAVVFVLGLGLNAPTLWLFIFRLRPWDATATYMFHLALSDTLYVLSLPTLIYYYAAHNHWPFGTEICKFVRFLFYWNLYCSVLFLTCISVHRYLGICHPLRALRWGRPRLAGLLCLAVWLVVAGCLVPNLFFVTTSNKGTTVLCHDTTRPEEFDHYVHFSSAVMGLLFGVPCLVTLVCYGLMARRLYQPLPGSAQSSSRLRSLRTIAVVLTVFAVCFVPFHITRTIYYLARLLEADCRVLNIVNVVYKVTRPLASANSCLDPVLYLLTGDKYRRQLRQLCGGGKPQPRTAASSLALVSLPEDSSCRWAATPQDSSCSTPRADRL
Description: as §1, §2

CXCR1 = target: T5, CXCR1 (Homo sapiens, UniProt P25024); assay: NanoBRET screen HiBiT-CXCR1 in HEK293
T5 construct: purchased Promega (in-house HiBiT-GPCR construct library, NanoBRET)
T5 sequence (P25024 1-350): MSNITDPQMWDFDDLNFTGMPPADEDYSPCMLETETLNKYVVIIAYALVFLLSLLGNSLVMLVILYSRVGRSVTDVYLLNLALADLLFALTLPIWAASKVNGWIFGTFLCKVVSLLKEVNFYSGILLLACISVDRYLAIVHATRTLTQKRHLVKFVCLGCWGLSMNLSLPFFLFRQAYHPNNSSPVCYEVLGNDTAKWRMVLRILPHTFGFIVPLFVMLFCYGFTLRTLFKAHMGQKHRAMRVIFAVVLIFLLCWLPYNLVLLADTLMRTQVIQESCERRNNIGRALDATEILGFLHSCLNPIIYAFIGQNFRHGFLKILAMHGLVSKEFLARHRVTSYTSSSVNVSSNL
Description: as §1, §2

GALR3 = target: T6, GALR3 (Homo sapiens, UniProt O60755); assay: NanoBRET screen HiBiT-GALR3 in HEK293
T6 construct: purchased Promega (in-house HiBiT-GPCR construct library, NanoBRET)
T6 sequence (O60755 1-368): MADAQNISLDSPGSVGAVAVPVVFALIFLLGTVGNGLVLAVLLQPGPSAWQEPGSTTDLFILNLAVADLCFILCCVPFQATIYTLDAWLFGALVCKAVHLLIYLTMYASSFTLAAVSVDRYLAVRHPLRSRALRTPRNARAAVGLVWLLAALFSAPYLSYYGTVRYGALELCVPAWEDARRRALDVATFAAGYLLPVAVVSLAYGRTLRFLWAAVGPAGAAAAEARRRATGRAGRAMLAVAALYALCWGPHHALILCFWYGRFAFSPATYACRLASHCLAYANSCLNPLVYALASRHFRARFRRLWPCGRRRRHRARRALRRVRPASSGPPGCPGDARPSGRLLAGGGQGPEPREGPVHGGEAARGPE
Description: as §1, §2

Compound	NanoBRET Fold Response (AGTR2; AGTR2, tracer 0.1μM)	NanoBRET Fold Response (AGTR2; AGTR2, tracer 1μM)	NanoBRET Fold Response (LTB4R; LTB4R, tracer 0.1μM)	NanoBRET Fold Response (LTB4R; LTB4R, tracer 1μM)	NanoBRET Fold Response (SSTR1; SSTR1, tracer 0.1μM)	NanoBRET Fold Response (SSTR1; SSTR1, tracer 1μM)	NanoBRET Fold Response (P2RY4; P2RY4, tracer 0.1μM)	NanoBRET Fold Response (P2RY4; P2RY4, tracer 1μM)	NanoBRET Fold Response (CXCR1; CXCR1, tracer 0.1μM)	NanoBRET Fold Response (CXCR1; CXCR1, tracer 1μM)	NanoBRET Fold Response (GALR3; GALR3, tracer 0.1μM)	NanoBRET Fold Response (GALR3; GALR3, tracer 1μM)	also measured
O=C(CCc1ccc2n1[B-](F)(F)[N+]1=C(c3ccc[nH]3)C=CC1=C2)NCc1ccc(C(=O)NCCOCCC(=O)N[C@@H]2CC[C@@]3(O)[C@H]4Cc5ccc(O)c6c5[C@@]3(CCN4CC3CC3)[C@H]2O6)cc1 [Naltrexone-3-NB590]	1.23	0.67	0.68	1.06	1.06	0.96	1.32	0.88	0.95	0.75	1.03	1.01	
CCCn1c(=O)c2[nH]c(-c3ccc(OCC(=O)NCCNC(=O)CCOCCNC(=O)c4ccc(CNC(=O)CCc5ccc6n5[B-](F)(F)[N+]5=C(c7ccc[nH]7)C=CC5=C6)cc4)cc3)nc2n(CCC)c1=O [XAC-3-NB590]	1.24	1.09	1.09	1.11	0.98	1.05	1.07	0.79	1.05	0.91	1.01	1.04	
CC(C)N(CC[C@H](c1ccccc1)c1cc(CCNC(=O)c2ccc(CNC(=O)CCc3ccc4n3[B-](F)(F)[N+]3=C(c5ccc[nH]5)C=CC3=C4)cc2)ccc1O)C(C)C [Tolterodine-BZ-NB590]	0.96	0.95	0.95	1.03	1.15	1.20	0.97	1.08	0.98	1.11	1.09	1.00	
COc1ccc2[nH]c(-c3ccc(CNC(=O)CCOCCOCCOCCOCCNC(=O)CCc4ccc5n4[B-](F)(F)[N+]4=C(c6ccc[nH]6)C=CC4=C5)cc3)c(CCNC(C)=O)c2n1 [AzomelatoninICO9-2-NB590]													NanoBRET Fold Response (AGTR2; 0.1μM tracer): 0.88; NanoBRET Fold Response (AGTR2; 1μM tracer): 0.95; NanoBRET Fold Response (LTB4R; 0.1μM tracer): 1.07; NanoBRET Fold Response (LTB4R; 1μM tracer): 0.99; NanoBRET Fold Response (SSTR1; 0.1μM tracer): 1.13; NanoBRET Fold Response (SSTR1; 1μM tracer): 1.01; NanoBRET Fold Response (P2RY4; 0.1μM tracer): 1.03; NanoBRET Fold Response (P2RY4; 1μM tracer): 1.13; NanoBRET Fold Response (CXCR1; 0.1μM tracer): 1.06; NanoBRET Fold Response (CXCR1; 1μM tracer): 0.96; NanoBRET Fold Response (GALR3; 0.1μM tracer): 1.06; NanoBRET Fold Response (GALR3; 1μM tracer): 1.08
